{"source": "patent US12168003B2", "about": "“Selective inhibition of T follicular helper cells for treatment of autoimmune disorders” (priority 2019, dated 2024)", "key": {"pre-existing TFH cells": {"system": "pre-existing TFH cells", "assay": "OVA/Alum immunization, 4EGI-1 after formation of TFH cells", "type": "in vivo, mouse", "description": "(§1) OVA protein (Sigma A5503) was diluted in PBS and then in 20 mg/mL Imject Alum (ThermoFisher 77161) and mixed at room temperature for 30 minutes prior to i.p. injection of 100 μg OVA in 200 μL. When stated, mice were treated i.p. daily from day 0 to 6 or day 0 to 13 (just for TFR analysis) following OVA/Alum immunization with 25 mg/kg 4EGI-1 (MedChemExpress) or from day 7 to 13 following OVA/Alum immunization with 50 mg/kg or 75 mg/kg 4EGI-1. Vehicle control mice were administered 6 μL DMSO in 194 μL PBS i.p.\n(§2) PVDF-coated 96-well plates (Millipore) were activated with methanol for 2 minutes, washed with PBS, and coated with 4 μg/mL OVA overnight at 4° C. Plates were blocked with 1% BSA for 2 hours at 37° C. prior to incubation with 1×10^7 splenocytes in RPMI containing 2% Ultra-low IgG FCS, 55 μM 2ME, and 100 U/mL penicillin and 100 μg/mL streptomycin in the top well. Cells were diluted by 1/2 each row going down the plate and incubated immobile overnight at 37° C. Plates were washed with water+0.05% Tween 20 for 5 min prior to 3 washes in PBS+0.05% Tween-20 for 10 minutes. Plates were incubated with 1:1000 HRP-coupled goat anti-mouse IgG1 antibody (Southern Biotech) in PBS+0.05% Tween 20 for 2 h prior to 3 washes in PBS+0.05% Tween 20 and incubation in tetramethylbenzidine (TMB) ELISA substrate buffer (ThermoFisher). Plates were washed once in distilled deionized water and spots were manually enumerated and antibody-secreting cells (ASC) per million splenocytes was determined.\nFor quantification of OVA-specific IgG1, high-binding 96-well plates (Costar) were coated with 10 μg/mL OVA protein. For S. aureus-specific IgG1, plates were coated with heat-killed S. aureus (heat-killed at 80° C. for 30 min). For total IgE, plates were coated with 2 μg/mL rat anti-mouse IgE (Southern Biotech). Following overnight incubation at 4° C., plates were blocked with 1% BSA for 30 min at 37° C. After blocking, serum (diluted 1/20 initially then 1/2 down the plate) was incubated at 37° C. for 2 hours, plates were washed 3 times in PBS and then incubated with 1:1000 anti-mouse IgG1-HRP (Southern Biotech) or anti-mouse IgE-HRP (Southern Biotech) for 1 hour at 37° C. Plates were washed 3 times in PBS and incubated with TMB substrate. Following development, TMB Stop Solution (BioLegend®) was added and plates were read at […]."}, "TFH cells": {"system": "TFH cells", "assay": "OVA/Alum immunization with 4EGI-1 throughout the response", "type": "in vivo, mouse", "description": "Single cell suspensions were stained with a viability marker diluted 1:1000 in PBS for 10 minutes, washed in PBS, and stained with antibodies to specific cell surface markers. Viability dye, antibody clones, and dilutions used to identify these populations are detailed in Table 2. Identification of cellular subsets in mice is detailed in FIGS. 1A-1N, 3A-3C, and 6A-6C). In brief, the following gating strategy was used to identify mouse TFH cells (CD4^+ PD1^+ CXCR5^+), TFR cells (CD4^+ PD1^+ CXCR5^+ Foxp3^+), IL-21^+ CD4^+ T cells (CD4^+ VFP^3+), IL-4^+ CD4^+ T cells (CD4^+ GFP^+) OT2 T cells (CD4^+ CD45.2^+ Vβ5^+), OT2 TFH cells (CD4^+ CD45.2^+ Vβ5^+ PD1^+ CXCR5^+), 2D2 T cells (CD4^+ CD45.2^+ Vα3.2^+), TFH-like 2D2 T cells (CD4^+ CD45.2^+ […]), plasma cells (B220^− CD138^+), plasmablasts (B220^mid CD138^+), GC B cells (B220^+ GL7^+ Fas^+), Light zone GC B cells (B220^+ GL7^+ Fas^+ CD86^+), dark zone GC B cells (B220^+ GL7^+ Fas^+ CXCR4^+), IgG1 switched GC B cells (B220^+ GL7^+ Fas^+ IgG1^+), OVA-specific GC B cells (B220^+ GL7^+ Fas^+ OVA-647^+), skin neutrophils (Ly6G^+ CD11b^+), lung eosinophils (SiglecF^+CD11c^−), brain and SC CD4^+ T cells (CD45^+ CD4^+). CD4^+ T cell expression of surface ICOS, PD-1, CXCR5, CD28, SLAM, OX-40 and intranuclear BCL6 was also determined. All flow cytometry procedures were performed on a ZE5 Cell Analyzed (Bio-Rad) and analyzed using FlowJo software (TreeStar).\nas §1\nSpleens from OVA/Alum immunized mice treated with vehicle or 4EGI-1 were harvested, embedded in OCT, and frozen immediately on dry ice. Five-micron thick cryosections were cut and fixed in acetone for 10 min. Slides were blocked with 1% BSA and stained with anti-CD4 conjugated to Alexa Fluor 647 and anti-B220 Alexa Fluor 555. Antibody clones are detailed in Table 2. Following 3 washes with PBS, slides were mounted with DAPI fluoromount (VECTASHIELD) and sealed with clear nail polish. Staining was visualized and tiled using a Zeiss 700 laser scanning inverted confocal microscope.\nB cell (Alexa fluor 555) and CD4^+ T cell (Alexa fluor 647) channels were split using FIJI, and B cell zones were manually outlined. This outline was overlaid upon the CD4^+ T cell stain and intensity of CD4^+ T cell staining within these zones was measured using FIJI and normalized to a fixed area of 500 microns\nas §2\nFor quantification of OVA-specific IgG1, high-binding 96-well plates (Costar) were coated with 10 μg/mL OVA protein. […]"}, "[1]": {"settings": "75 mg/kg, day 7 to 13 after OVA/Alum"}, "[2]": {"settings": "4EGI-1 day 7 to 13 after OVA/Alum"}, "[3]": {"settings": "cytokine reporter mice, OVA-Alum immunization"}}, "data": [{"smiles": "O=C(O)C(Cc1ccccc1[N+](=O)[O-])=NNc1nc(-c2ccc(Cl)c(Cl)c2)cs1", "note": "(mixture of isomers) [4EGI-1]", "values": [{"measurement": "reduction of CD4+ T cell protein synthesis (SUnSET)", "setting": "pre-existing TFH cells; [1]", "result": "approximately half"}, {"measurement": "total number of CD4+ T cells in spleen", "setting": "pre-existing TFH cells; [1]", "result": "without significantly reducing"}, {"measurement": "reduction of levels of GC B cells", "setting": "pre-existing TFH cells; [2]", "result": 3, "unit": "fold"}, {"measurement": "reduction of levels of OVA-specific IgG1 ASC cells", "setting": "pre-existing TFH cells; [2]", "result": 3, "unit": "fold"}, {"measurement": "reduction of levels of pre-existing splenic CD4+ TFH cells", "setting": "pre-existing TFH cells; [2]", "result": 3, "unit": "fold"}, {"measurement": "serum OVA-specific IgG1 antibody", "setting": "pre-existing TFH cells; [2]", "result": "moderately reduced"}, {"measurement": "reduction of TFH cells in spleen", "setting": "TFH cells; 25 mg/kg daily, OVA/Alum, day 7", "result": 3.5, "unit": "fold"}, {"measurement": "overall CD4+ T cell numbers", "setting": "TFH cells; 25 mg/kg daily, OVA/Alum, spleen, day 7", "result": "did not alter"}, {"measurement": "CD4+ T cell activation (CD44high)", "setting": "TFH cells; 25 mg/kg daily, OVA/alum", "result": "did not affect"}, {"measurement": "CD4+ T cell division", "setting": "TFH cells; 25 mg/kg daily, OVA/alum", "result": "did not affect"}, {"measurement": "CD4+ T cell expression of CD28", "setting": "TFH cells; 25 mg/kg daily, OVA/alum", "result": "decreased by half"}, {"measurement": "CD4+ T cell expression of OX40", "setting": "TFH cells; 25 mg/kg daily, OVA/alum", "result": "not affected"}, {"measurement": "CD4+ T cell expression of SLAM", "setting": "TFH cells; 25 mg/kg daily, OVA/alum", "result": "decreased by half"}, {"measurement": "levels of expression of ICOS on CD4+ T cells", "setting": "TFH cells; 25 mg/kg daily, OVA/alum", "result": "did not affect"}, {"measurement": "reduction of expression of PD-1 on splenic CD4+ T cells", "setting": "TFH cells; 25 mg/kg daily, OVA/alum", "result": "more than half"}, {"measurement": "reduction of expression of intranuclear BCL6 in splenic CD4+ T cells", "setting": "TFH cells; 25 mg/kg daily, OVA/alum", "result": "more than half"}, {"measurement": "reduction of expression of surface CXCR5 on splenic CD4+ T cells", "setting": "TFH cells; 25 mg/kg daily, OVA/alum", "result": "more than half"}, {"measurement": "infiltration of CD4+ T cells in B cell zones", "setting": "TFH cells; 25 mg/kg daily, OVA/alum, splenic sections", "result": "almost abolished"}, {"measurement": "reduction of TFR cells", "setting": "TFH cells; 4EGI-1 for 14 days, measured at day 14, OVA/Alum", "result": 3, "unit": "fold"}, {"measurement": "serum OVA-specific IgG1 antibody", "setting": "TFH cells; OVA/Alum, ELISA", "result": "reduced by half"}, {"measurement": "OVA-specific IgG1 antibody secreting cells (ASCs)", "setting": "TFH cells; OVA/Alum, ELISPOT, splenocytes", "result": "almost abolished"}, {"measurement": "decrease of GC B cells in the CD86+ light zone (LZ)", "setting": "TFH cells; OVA/Alum, spleen, day 7", "result": 3, "unit": "fold"}, {"measurement": "decrease of GC B cells in the CXCR4+ dark zone (DZ)", "setting": "TFH cells; OVA/Alum, spleen, day 7", "result": 3, "unit": "fold"}, {"measurement": "decrease of GC B cells that are class switched IgG1+", "setting": "TFH cells; OVA/Alum, spleen, day 7", "result": 3, "unit": "fold"}, {"measurement": "decrease of OVA-specific GC B cells", "setting": "TFH cells; OVA/Alum, spleen, day 7", "result": 3, "unit": "fold"}, {"measurement": "decrease of number of total GC B cells", "setting": "TFH cells; OVA/Alum, spleen, day 7", "result": 3, "unit": "fold"}, {"measurement": "reduction of number of total plasma cells", "setting": "TFH cells; OVA/Alum, spleen, day 7", "result": 2, "unit": "fold"}, {"measurement": "reduction of number of total plasmablasts", "setting": "TFH cells; OVA/Alum, spleen, day 7", "result": 2, "unit": "fold"}, {"measurement": "decrease of total number of CD4+ T cells producing IL-4 (GFP+) in the spleen", "setting": "TFH cells; [3]", "result": 2.5, "unit": "fold"}, {"measurement": "decrease of total number of CD4+ T cells producing IL-21 (VFP+) in the spleen", "setting": "TFH cells; [3]", "result": 2.5, "unit": "fold"}]}]}
